39 compounds from patent US8815903B2, “Indole derivative and pharmacologically acceptable salt thereof” (Kissei Pharmaceutical Co., Ltd., priority 2011, dated 2014) can be followed below.

The experiment concerns the target T1, rat EP1 receptor (Rattus norvegicus, UniProt P70597).
T1 construct: expressed in transfected cells
T1 sequence (P70597 1-405): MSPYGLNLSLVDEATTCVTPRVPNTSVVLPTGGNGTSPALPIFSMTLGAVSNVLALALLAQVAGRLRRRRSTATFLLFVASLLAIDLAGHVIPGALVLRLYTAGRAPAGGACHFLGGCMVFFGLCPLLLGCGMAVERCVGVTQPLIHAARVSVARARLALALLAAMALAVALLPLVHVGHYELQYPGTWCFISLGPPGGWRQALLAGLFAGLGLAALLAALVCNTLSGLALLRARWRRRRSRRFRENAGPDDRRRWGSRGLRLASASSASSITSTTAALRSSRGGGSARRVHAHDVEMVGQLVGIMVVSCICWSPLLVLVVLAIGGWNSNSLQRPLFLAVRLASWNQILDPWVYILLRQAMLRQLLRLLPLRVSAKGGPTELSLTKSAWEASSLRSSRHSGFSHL
The experiment is described as follows: Test for confirmation of EP1 receptor antagonism (inhibition of PGE2-induced increase in intracellular calcium concentration). In kind it is cell-based. Particulars: rat EP1 receptor-expressing COS-1 cells; prostaglandin E2 10 nM; fluorescent calcium indicator, FDSS 7000. The method, then: Test for Confirmation of EP1 Receptor Antagonism
(1) Preparation of Rat EP1 Expression Vector
Using Rat Kidney BD Marathon-Ready cDNA (Nippon Becton Dickinson Company, Ltd.) as a template, a forward primer shown in (SEQ ID NO:1), and a reverse primer shown in (SEQ ID NO:2), a first run of PCR was carried out using KOD-Plus-Ver 2.0 (Toyobo Co., Ltd.). Further, using this amplification product as a template, a forward primer shown in (SEQ ID NO:3), and a reverse primer shown in (SEQ ID NO:4), a second run of PCR was carried out in the same manner. The amplification product obtained by the second run of PCR was incorporated into a vector (pcDNA3.1 D/V5-His-TOPO (registered trademark), Invitrogen Japan K. K.). By a conventional method, the vector containing this amplification product was introduced to E. coli (One Shot TOP 10 Competent Cells, Invitrogen Corporation) to transform. This transformed E. coli was cultured in an LB agar medium for one day. After the culture, colonies were selected and cultured in an LB liquid medium containing 50 μg/mL of ampicillin. After the culture, the vector was purified using a QIAprep Spin Miniprep Kit (Qiagen K. K.). The base sequence of the insertion site of this vector (SEQ ID NO:5) was compared with the rat EP1 base sequence (Ptger1) registered as Accession No. NM_013100 in publicly-known database (NCBI), and as a result, they all matched except for a single base. Further, the amino acid sequence translated by the base sequence completely matched the amino acid sequence of the rat EP1 receptor registered as an NCBI Accession No. NP_037232. Therefore, it was confirmed that the cloned gene sequence was a base sequence of the rat EP1 receptor and the obtained amino acid sequence was that of the rat EP1 receptor. The pcDNA3.1 D/V5-His-TOPO (registered trademark) to which the nucleic acid shown in (SEQ ID NO:5) had been inserted was taken as a rat EP1-expressing vector.
(2) Preparation of Rat EP1 Receptor-Expressing Cells
COS-1 cells (Dainippon Sumitomo Pharma Co., Ltd.) were cultured until they reached confluence in an incubator at 37° C. under a 5% CO2 gas condition, using a D-MEM liquid medium (high glucose and L-glutamine contained, Invitrogen Corporation) to which a penicillin-streptomycin solution (Invitrogen Corporation, final concentration: 100 U/mL as benzylpenicillin; 100 μg/mL as streptomycin) as an antibiotic, MEM nonessential amino acids (Invitrogen Corporation, final concentration: 0.1 mM), and fetal calf serum (Sanko Junyaku Co., Ltd., final concentration: 10%) were added.
The cells that had reached confluence were stripped with 0.05% trypsin/0.53 mM EDTA.4Na, and resuspended in a D-MEM liquid medium (high glucose and L-glutamine contained, Invitrogen Corporation) to which an MEM nonessential amino acid (final concentration: 0.1 mM) and fetal calf serum (final concentration: 10%) were added. In each well of a Poly D-lysine-coated 96-well microplate (BD BioCoat (registered trademark), Nippon Becton Dickinson Company, Ltd.), this resuspended cell suspension culture was prepared to be 5×10^4 cells/well in 100 μL of the liquid medium, and 100 μL of the cell suspension was seeded on each well. After seeding, the cells were cultured in an incubator at 37° C. under a 5% CO2 gas condition. At a point when the cells for introduction of a rat EP1-expressing vector were adhered (about 2 hours after seeding), introduction of the rat EP1-expressing vector was carried out in the following order.
For introduction of the rat EP1-expressing vector, Lipofectamine 2000 (Invitrogen Japan K. K.) was used. The rat EP1-expressing vector was diluted with OPTI-MEM (registered trademark) I Reduced-Serum Medium (Invitrogen Japan K. K.) to 200 ng/25 μL/well, and at the same time, Lipofectamine 2000 (Invitrogen Japan K. K.) was also diluted with OPTI-MEM (registered trademark) I Reduced-Serum Medium (Invitrogen Japan K. K.) to 0.5 μL/25 μL/well, followed by incubation at room temperature for 5 minutes. […]

As for `COc1ccc2c(Cc3cccc(C(=O)NS(=O)(=O)c4ccccc4F)n3)c(C(C)(C)C)[nH]c2c1` [Example 18-13], the IC50 is 40 nM.

Take `CCc1ccc2c(Cc3cccc(-c4nnn[nH]4)n3)c(C3(C)CC3)[nH]c2c1` [Example 20-2, 6-ethyl-2-(1-methylcyclopropyl)-3-[6-(1H-tetrazol-5-yl)pyridin-2-ylmethyl]-1H-indole]: the IC50 is 15 nM.

Turning to `c1cc(Cc2c(-c3ccoc3)[nH]c3cc(C4CC4)ccc23)nc(-c2nnn[nH]2)c1` [Example 17-9], the IC50 is 10 nM.

As for `Cc1ccc2c(Cc3cccc(-c4nnn[nH]4)n3)c(-c3ccsc3)[nH]c2c1` [Example 5-13], the IC50 was determined as 30 nM.

As to `COc1ccc2c(Cc3cccc(C(=O)NS(C)(=O)=O)n3)c(-c3csc(C)c3)[nH]c2c1` [Example 3-20], the IC50 is 68 nM.

Turning to `CC1(c2[nH]c3cc(C4CC4)ccc3c2Cc2cccc(-c3nnn[nH]3)n2)CC1` [Example 17-13, 6-cyclopropyl-2-(1-methylcyclopropyl)-3-[6-(1H-tetrazol-5-yl)pyridin-2-ylmethyl]-1H-indole], the IC50 stood at 28 nM.

Turning to `CCS(=O)(=O)NC(=O)c1cccc(Cc2c(-c3ccccc3)[nH]c3cc(C)ccc23)n1` [Example 3-34], the IC50 stood at 40 nM.

Take `COc1ccc2c(Cc3cccc(-c4nnn[nH]4)c3)c(-c3ccccc3)[nH]c2c1` [Example 5-6]: the IC50 was 45 nM.

As for `CCC(C)c1[nH]c2cc(OC)ccc2c1Cc1cccc(-c2nnn[nH]2)n1` (stereo not drawn) [Example 17-10], the IC50 was 22 nM.

Take `COc1ccc2c(Cc3cccc(C(=O)NS(C)(=O)=O)n3)c(-c3ccc(F)cc3)[nH]c2c1` [Example 3-14]: the IC50 was 88 nM.

In the case of `COc1cc2[nH]c(C(C)C)c(Cc3cccc(-c4nnn[nH]4)n3)c2cc1Cl` [Example 17-4], the IC50 came out at 27 nM.

Take `O=c1[nH]c(-c2cccc(Cc3c(-c4ccccc4)[nH]c4cc(C5CC5)ccc34)n2)no1` [Example 12-6]: the IC50 amounted to 40 nM.

Consider `Cc1ccc2c(Cc3cccc(C(=O)NC#N)n3)c(-c3ccsc3)[nH]c2c1` [Example 16-6], for which the IC50 stood at 36 nM.

`CCCS(=O)(=O)NC(=O)c1cccc(Cc2c(-c3ccccc3)[nH]c3cc(OC)ccc23)n1` [Example 3-4]: the IC50 came out at 39 nM.

In the case of `COc1ccc2c(Cc3cccc(C(=O)NS(=O)(=O)C4CC4)n3)c(-c3ccccc3)[nH]c2c1` [Example 3-10], the IC50 is 47 nM.

Regarding `COc1ccc2c(Cc3cccc(-c4nnn[nH]4)n3)c(-c3cccnc3)[nH]c2c1` [Example 5-10], the IC50 was 13 nM.

Regarding `CS(=O)(=O)NC(=O)c1cccc(Cc2c(-c3ccccc3)[nH]c3cc(Cl)ccc23)n1` [Example 3-25], the IC50 was 78 nM.

For the compound `Cc1cc2[nH]c(-c3ccccc3)c(Cc3cccc(C(=O)NS(C)(=O)=O)n3)c2cc1C` [Example 3-30], the concentration for half-maximal inhibition (IC50) was 43 nM.

On to `COc1ccc2c(Cc3cccc(-c4nnn[nH]4)n3)c(-c3ccsc3)[nH]c2c1` [Example 5-4], for which the IC50 was 12 nM.

`CC1(c2[nH]c3cc(Cl)ccc3c2Cc2cccc(-c3nnn[nH]3)n2)CC1` [Example 17-14, 6-chloro-2-(1-methylcyclopropyl)-3-[6-(1H-tetrazol-5-yl)pyridin-2-ylmethyl]-1H-indole]: the IC50 amounted to 24 nM.

Consider `CCS(=O)(=O)NC(=O)c1cccc(Cc2c(-c3ccsc3)[nH]c3cc(C)ccc23)n1` [Example 18-9], for which the 50% inhibitory concentration (IC50) was found to be 23 nM.

Regarding `CCS(=O)(=O)NC(=O)c1cccc(Cc2c(-c3ccccc3)[nH]c3cc(OC)c(F)cc23)n1` [Example 3-32], the IC50 amounted to 51 nM.

Regarding `COc1ccc2c(Cc3cccc(-c4nnn[nH]4)n3)c(C(C)C)[nH]c2c1` [Example 17-5], the IC50 worked out at 23 nM.

Consider `COc1ccc2c(Cc3cccc(-c4nnn[nH]4)n3)c(-c3cncnc3)[nH]c2c1` [Example 23, 6-Methoxy-2-pyrimidin-5-yl-3-[6-(1H-tetrazol-5-yl)pyridin-2-ylmethyl]-1H-indole], for which the IC50 came to 11 nM.

As for `COc1cc2[nH]c(-c3ccccc3)c(Cc3cccc(C(=O)NC#N)n3)c2cc1F` [Example 16-3], the IC50 was determined as 24 nM.

With `COc1ccc2c(Cc3cccc(-c4noc(=O)[nH]4)n3)c(-c3ccoc3)[nH]c2c1` [Example 12-1], the concentration for half-maximal inhibition (IC50) came out at 23 nM.

On to `COc1ccc2c(Cc3cccc(C(=O)NC#N)n3)c(C(C)(C)C)[nH]c2c1` [Example 16-2], for which the IC50 amounted to 48 nM.

Take `CCS(=O)(=O)NC(=O)c1cccc(Cc2c(-c3ccccc3)[nH]c3cc(C)c(C)cc23)n1` [Example 3-31]: the IC50 was 47 nM.

In the case of `COc1cc2c(Cc3cccc(-c4nnn[nH]4)n3)c(C3(C)CC3)[nH]c2cc1Cl` [Example 20-1, 6-chloro-5-methoxy-2-(1-methylcyclopropyl)-3-[6-(1H-tetrazol-5-yl)pyridin-2-ylmethyl]-1H-indole], the IC50 stood at 27 nM.

On to `Cc1cc2[nH]c(-c3ccccc3)c(Cc3cccc(-c4noc(=O)[nH]4)n3)c2cc1C` [Example 12-7], for which the IC50 amounted to 28 nM.

For the compound `COc1ccc2c(Cc3cccc(-c4nnn[nH]4)n3)c(-c3csc(C)c3)[nH]c2c1` [Example 5-12], the IC50 came to 26 nM.

As for `COc1cc2[nH]c(-c3ccccc3)c(Cc3cccc(-c4noc(=O)[nH]4)n3)c2cc1F` [Example 12-5], the IC50 is 46 nM.

In the case of `COc1ccc2c(Cc3cccc(-c4nnn[nH]4)n3)c(C3CCCCC3)[nH]c2c1` [Example 17-7], the IC50 was 30 nM.

With `CCS(=O)(=O)NC(=O)c1cccc(Cc2c(-c3ccccc3)[nH]c3cc(Cl)ccc23)n1` [Example 3-24], the IC50 amounted to 58 nM.

Turning to `Cc1ccc2c(Cc3cccc(C(=O)NS(C)(=O)=O)n3)c(-c3ccsc3)[nH]c2c1` [Example 3-12], the IC50 turned out to be 27 nM.

For `COc1ccc2c(Cc3cccc(-c4nnn[nH]4)n3)c(C3CC3)[nH]c2c1` [Example 17-6], the IC50 stood at 31 nM.

Turning to `Cc1ccc2c(Cc3cccc(C(=O)NC#N)n3)c(-c3ccccc3)[nH]c2c1` [Example 16-1], the IC50 was 54 nM.

For `Cc1ccc2c(Cc3cccc(-c4nnn[nH]4)n3)c(-c3ccoc3)[nH]c2c1` [Example 17-8], the IC50 came out at 7.3 nM.

With `Cc1ccc2c(Cc3cccc(-c4noc(=O)[nH]4)n3)c(-c3ccsc3)[nH]c2c1` [Example 12-9], the IC50 was found to be 34 nM.

A word on the IC50: it is the concentration that inhibits the measured activity by half.
